{"source": "paper PMC13494539", "about": "(Cell Reports Methods, 2026)", "target": "CRL4^CRBN-pomalidomide-SALL4 ZF1-ZF2 (aa 378–453) ternary complex (Homo sapiens, UniProt Q96SW2+Q9UJQ4)", "sequence (Q9UJQ4 378-453 limits assumed)": "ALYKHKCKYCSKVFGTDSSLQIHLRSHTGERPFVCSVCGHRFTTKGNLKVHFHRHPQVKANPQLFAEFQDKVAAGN", "sequence (Q96SW2 whole entry, the tested form may be a part)": "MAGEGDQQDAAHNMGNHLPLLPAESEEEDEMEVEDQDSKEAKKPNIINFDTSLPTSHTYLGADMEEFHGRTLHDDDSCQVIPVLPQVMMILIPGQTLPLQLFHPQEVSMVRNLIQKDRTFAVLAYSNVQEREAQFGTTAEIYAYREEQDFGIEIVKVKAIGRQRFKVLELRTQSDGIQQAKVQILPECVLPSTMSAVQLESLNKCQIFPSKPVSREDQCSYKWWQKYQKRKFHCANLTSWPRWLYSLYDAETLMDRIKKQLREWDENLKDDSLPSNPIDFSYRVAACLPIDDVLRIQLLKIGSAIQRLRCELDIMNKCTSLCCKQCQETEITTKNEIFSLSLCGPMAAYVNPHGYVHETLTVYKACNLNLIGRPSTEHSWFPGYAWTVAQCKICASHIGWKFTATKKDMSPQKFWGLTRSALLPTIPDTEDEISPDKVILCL", "sequence (Q16531 whole entry partner, the tested form may be a part)": "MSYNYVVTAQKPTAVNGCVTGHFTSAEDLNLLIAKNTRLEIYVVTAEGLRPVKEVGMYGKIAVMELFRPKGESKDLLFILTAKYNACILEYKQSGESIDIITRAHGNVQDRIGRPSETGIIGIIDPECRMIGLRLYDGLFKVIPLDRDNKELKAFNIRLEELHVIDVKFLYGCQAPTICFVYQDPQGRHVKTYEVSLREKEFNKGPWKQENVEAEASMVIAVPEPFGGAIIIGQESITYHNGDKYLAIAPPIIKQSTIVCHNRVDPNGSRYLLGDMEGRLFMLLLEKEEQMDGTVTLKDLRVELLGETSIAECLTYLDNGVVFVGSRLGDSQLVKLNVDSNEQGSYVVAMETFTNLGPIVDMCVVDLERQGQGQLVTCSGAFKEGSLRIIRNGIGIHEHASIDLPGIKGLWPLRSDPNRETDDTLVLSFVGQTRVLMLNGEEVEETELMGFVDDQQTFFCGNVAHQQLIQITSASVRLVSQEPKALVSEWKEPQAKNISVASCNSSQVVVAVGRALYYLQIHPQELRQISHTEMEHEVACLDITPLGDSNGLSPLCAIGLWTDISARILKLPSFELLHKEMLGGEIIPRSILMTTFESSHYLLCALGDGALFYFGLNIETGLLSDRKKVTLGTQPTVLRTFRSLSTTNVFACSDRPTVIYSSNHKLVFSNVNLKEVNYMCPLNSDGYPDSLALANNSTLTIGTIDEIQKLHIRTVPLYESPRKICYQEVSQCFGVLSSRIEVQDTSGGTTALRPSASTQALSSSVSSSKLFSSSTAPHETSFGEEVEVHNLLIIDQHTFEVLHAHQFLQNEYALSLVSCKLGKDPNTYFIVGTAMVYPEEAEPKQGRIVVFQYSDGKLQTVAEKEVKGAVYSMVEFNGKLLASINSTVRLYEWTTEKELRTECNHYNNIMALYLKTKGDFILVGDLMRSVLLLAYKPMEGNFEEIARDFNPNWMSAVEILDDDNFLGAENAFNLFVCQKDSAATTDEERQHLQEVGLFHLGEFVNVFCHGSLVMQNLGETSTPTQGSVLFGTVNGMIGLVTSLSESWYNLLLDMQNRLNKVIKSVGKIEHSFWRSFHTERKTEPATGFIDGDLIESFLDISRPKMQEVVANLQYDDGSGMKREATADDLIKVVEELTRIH", "sequence (Q13619 whole entry partner, the tested form may be a part)": "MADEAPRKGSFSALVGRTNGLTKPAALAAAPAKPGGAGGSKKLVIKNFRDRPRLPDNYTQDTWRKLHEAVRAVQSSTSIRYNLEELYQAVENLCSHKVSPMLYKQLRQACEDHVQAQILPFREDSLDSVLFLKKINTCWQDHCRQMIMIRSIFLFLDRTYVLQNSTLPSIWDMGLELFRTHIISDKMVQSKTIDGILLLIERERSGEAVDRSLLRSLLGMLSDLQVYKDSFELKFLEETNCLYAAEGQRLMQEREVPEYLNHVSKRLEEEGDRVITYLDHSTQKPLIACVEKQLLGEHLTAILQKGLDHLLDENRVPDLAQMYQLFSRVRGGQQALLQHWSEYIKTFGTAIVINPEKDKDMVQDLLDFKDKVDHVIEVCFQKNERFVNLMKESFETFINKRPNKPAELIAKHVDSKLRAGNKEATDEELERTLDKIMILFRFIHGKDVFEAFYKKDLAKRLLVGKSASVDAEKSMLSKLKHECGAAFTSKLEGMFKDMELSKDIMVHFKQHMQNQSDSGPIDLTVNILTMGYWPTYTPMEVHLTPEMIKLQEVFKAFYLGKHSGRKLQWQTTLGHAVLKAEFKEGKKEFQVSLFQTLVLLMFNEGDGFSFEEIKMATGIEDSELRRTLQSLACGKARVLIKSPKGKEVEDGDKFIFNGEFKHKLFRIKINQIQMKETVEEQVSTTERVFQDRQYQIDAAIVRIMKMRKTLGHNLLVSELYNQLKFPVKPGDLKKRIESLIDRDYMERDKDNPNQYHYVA", "sequence (P62877 whole entry partner, the tested form may be a part)": "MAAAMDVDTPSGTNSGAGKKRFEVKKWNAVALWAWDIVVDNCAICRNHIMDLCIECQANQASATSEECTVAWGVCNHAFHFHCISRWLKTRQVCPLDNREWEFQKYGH", "sequence (Q15843 1-76 partner limits assumed)": "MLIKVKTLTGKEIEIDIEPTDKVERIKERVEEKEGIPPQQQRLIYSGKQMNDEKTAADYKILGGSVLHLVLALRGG", "conditions": "presence vs absence of pomalidomide"}
{"smiles": "Nc1cccc2c1C(=O)N(C1CCC(=O)NC1=O)C2=O", "note": "(stereo not shown) [Pomalidomide]", "values": [{"measurement": "enhancement of SALL4 recruitment by CRL4^CRBN in the presence of pomalidomide", "value": "more than 10 fold"}]}
